According to US8309558B2, “Compounds for the treatment of hepatitis C” (Bristol-Myers Squibb Company, priority 2008, dated 2012):
Like-named read-outs stand apart in the source and are kept apart here.

What was measured:
[1] = test system: HCV replicon cells; assay: HCV replicon FRET / luciferase assay (96-well plates); type: cell-based; details: Hepatitis C virus, HCV replicon, read-out: EC50
Outline: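 Trypsinized replicon cells were seeded with compound titrations and incubated at 37 °C for various times. Alamar blue was added to gauge toxicity. Plates were then rinsed and either lysed with FRET peptide reagent for kinetic fluorescence reading or switched to phenol red-free DMEM for luciferase measurement.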

[2] = target: T1, HCV NS5B RdRp genotype 1b (Hepatitis C virus genotype 1b, UniProt Q9WMX2); assay: Standard HCV NS5B RdRp enzyme assay; type: biochemical; details: HCV NS5B RdRp genotype 1b, read-out: IC50
T1 construct: The protein was expressed with an 18 amino acid C-terminal truncation to enhance the solubility; made in house; host or cells: E. coli BL21(DE3), pET21a vector
T1 sequence (Q9WMX2 2420-2992): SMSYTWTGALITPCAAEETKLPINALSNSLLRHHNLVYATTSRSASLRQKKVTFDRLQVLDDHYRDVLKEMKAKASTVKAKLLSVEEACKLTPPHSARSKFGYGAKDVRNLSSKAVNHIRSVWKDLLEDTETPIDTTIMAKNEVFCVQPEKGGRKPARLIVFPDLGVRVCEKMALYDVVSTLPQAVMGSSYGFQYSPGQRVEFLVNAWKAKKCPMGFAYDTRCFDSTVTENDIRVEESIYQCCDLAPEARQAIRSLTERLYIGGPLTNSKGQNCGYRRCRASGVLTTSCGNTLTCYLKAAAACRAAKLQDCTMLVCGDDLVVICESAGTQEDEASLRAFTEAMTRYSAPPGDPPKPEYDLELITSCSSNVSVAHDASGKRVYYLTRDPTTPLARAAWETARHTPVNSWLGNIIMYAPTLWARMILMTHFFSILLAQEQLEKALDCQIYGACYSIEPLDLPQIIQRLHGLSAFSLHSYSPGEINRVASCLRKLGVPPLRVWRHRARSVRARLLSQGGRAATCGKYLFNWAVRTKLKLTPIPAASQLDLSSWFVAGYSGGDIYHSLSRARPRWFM
Outline: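 C-terminally truncated (18 aa) genotype 1b NS5B from E. coli, 28 nM, with 6 nM polyA template, 180 nM biotinylated oligo-dT12 primer and 3H-UTP (0.29 μM total UTP). Hepes pH 7.5 buffer with 2% DMSO; 60 min at 30° C. EDTA stop, SPA read-out; IC50 from seven concentrations by four-parameter fit.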

SMILES	EC50 ([1]; Table 1a) [nM]	IC50 ([2]; Table 1a) [nM]	EC50 ([1]; Table 1b) [nM]	IC50 ([2]; Table 1b) [nM]	further results
CNC(=O)c1c(-c2ccc(F)cc2)oc2cc([N+](=O)[O-])c(-c3cccc(C(=O)NC4(c5ccccc5)CC4)c3)cc12	< 250	< 250	–	–	–
CNC(=O)c1c(-c2ccc(F)cc2)oc2ccc(-c3cc(C(=O)NC4(c5ncccn5)CC4)c(OC)cc3C)cc12	–	–	< 250	< 250	–
CNC(=O)c1c(-c2ccc(F)cc2)oc2ccc(-c3cccc(C(=O)NC(C)CCc4ccccc4)c3)cc12 (stereo not shown)	250 to 1000	250 to 1000	–	–	–
CNC(=O)c1c(-c2ccc(F)cc2)oc2ccc(-c3ccc(C(=O)NC(C)(C)C)cc3)cc12	250 to 1000	1000 to 10000	–	–	–
CNC(=O)c1c(-c2ccc(F)cc2)oc2ccc(-c3cc(C(=O)NC4(c5ccccn5)CC4)ccc3C)cc12 [drawing 425]	–	–	< 250	< 250	–
CNC(=O)c1c(-c2ccc(F)cc2)oc2ccc(-c3cccc(C(=O)Nc4cccc(C#N)c4)c3)cc12	< 250	250 to 1000	–	–	–
CNC(=O)c1c(-c2ccc(F)cc2)oc2ccc(-c3cccc(C(=O)O)c3OC)cc12	–	–	–	–	EC50 ([1]; untitled table after Table 1b, values without asterisk): 13300 nM; IC50 ([2]; untitled table after Table 1b): 4750 nM
CNC(=O)c1c(-c2ccc(F)cc2)oc2ccc(-c3cccc(C(=O)N(C)S(=O)(=O)c4ccccc4)c3)cc12	1000 to 10000	> 1390	–	–	–
CNC(=O)c1c(-c2ccc(F)cc2)oc2cc(N(CCO)S(C)(=O)=O)c(-c3cccc(C(=O)NC4(c5ccccc5)CC4)c3)cc12	–	–	< 250	< 250	–
CNC(=O)c1c(-c2ccc(F)cc2)oc2ccc(-c3cc(C(=O)NC4(c5nnc(C(N)=O)[nH]5)CC4)ccc3C)cc12	–	–	250 to 1000	< 250	–
CNC(=O)c1c(-c2ccc(F)cc2)oc2ccc(-c3cccc(C(=O)NCCNC(C)=O)c3)cc12	1000 to 10000	1000 to 10000	–	–	–
CNC(=O)c1c(-c2ccc(F)cc2)oc2ccc(-c3cc(C(=O)NCC(C)C)ccc3OC(C)C)cc12	250 to 1000	250 to 1000	–	–	–
CNC(=O)c1c(-c2ccc(F)cc2)oc2ccc(-c3cccc(C(=O)NCc4cccc(C)c4)c3)cc12	< 250	< 250	–	–	–
CNC(=O)c1c(-c2ccc(F)cc2)oc2ccc(-c3ccc(C(=O)NC4CC4)cc3)cc12	> 1230	> 10000	–	–	–
CNC(=O)c1c(-c2ccc(F)cc2)oc2ccc(-c3cccc(C(=O)NC(C)(C)C(=O)NCC(F)F)c3)cc12	< 250	< 250	–	–	–
CNC(=O)c1c(-c2ccc(F)cc2)oc2ccc(-c3ccc(C(=O)N4CCC[C@@H]4COC)cc3)cc12 [drawing 288]	> 10000	> 10000	–	–	–
CNC(=O)c1c(-c2ccc(F)cc2)oc2ccc(-c3cccc(C(=O)N(C)CCN(C)C)c3)cc12	1000 to 10000	> 10000	–	–	–
CNC(=O)c1c(-c2ccc(F)cc2)oc2ccc(-c3cccc(-c4ccnn4Cc4ccccc4)c3)cc12	–	–	< 250	< 250	–
CNC(=O)c1c(-c2ccccc2)oc2ccc(-c3cc(C(=O)NC4(c5nnc(-c6ccccc6)[nH]5)CC4)ccc3C)cc12	–	–	< 250	< 250	–
CNC(=O)c1c(-c2ccc(F)cc2)oc2ccc(-c3cc(C(=O)NC4(c5ncc(C)o5)CC4)c(OC)cc3C)cc12	–	–	–	–	EC50 ([1]; 24 h, Table 1d (class symbols)): 1 to 250 nM; IC50 ([2]; Table 1d (class symbols)): < 20 nM
CNC(=O)c1c(-c2ccc(F)cc2)oc2ccc(-c3ccc(-c4cccc(/C=C/C(=O)O)c4)c(C(=O)NCC(C)C)c3)cc12	–	–	250 to 1000	< 250	–
CNC(=O)c1c(-c2ccc(F)cc2)oc2ccc(-c3cc(OC(C)C)cc(C(=O)NCC(C)C)c3)cc12	–	–	> 10000	1000 to 10000	–
CNC(=O)c1c(-c2ccc(F)cc2)oc2ccc(-c3ccc(-c4ccccc4NC(C)=O)c(C(=O)NCC(C)C)c3)cc12	–	–	1000 to 10000	250 to 1000	–
CNC(=O)c1c(-c2ccc(F)cc2)oc2ccc(-c3ccc(OCC(C)C)cc3)cc12	> 400	> 10000	–	–	–
CNC(=O)c1c(-c2ccc(F)cc2)oc2ccc(-c3cc(C(=O)NC4(c5nnc(-c6ccncc6)[nH]5)CC4)ccc3C)cc12	–	–	< 250	< 250	–
CNC(=O)c1c(-c2ccc(F)cc2)oc2ccc(-c3cccc(C(=O)NC(C)(C)c4cccc5ccccc45)c3)cc12	250 to 1000	250 to 1000	–	–	–
CNC(=O)c1c(-c2ccc(F)cc2)oc2ccc(-c3cccc(C(=O)Nc4ccccn4)c3)cc12	< 250	< 250	–	–	–
CNC(=O)c1c(-c2ccc(F)cc2)oc2ccc(-c3c(C)ccc(C(=O)O)c3OC)cc12	–	–	> 10000	1000 to 10000	–
CNC(=O)c1c(-c2ccc(F)cc2)oc2ccc(-c3cccc(C(=O)Nc4cncc(C(=O)O)c4)c3)cc12	> 10000	250 to 1000	–	–	–
